Where two headings read alike, the source gives them in different places.
How the values were obtained:
[1] = Sample appearance on sample preparation in water; type: physicochemical; conditions: 1 mL of water was added to 1 mg solid
[2] = test system: β-D-glucuronidase (bovine liver); assay: Glycosidase inhibition (Table 3 panel); type: biochemical; conditions: 1 mg/mL aqueous solution; run in water
Description: (§1) All enzymes and para-nitrophenyl substrates were purchased from Sigma. Enzymes were assayed at 27 °C in citric acid (0.1 M)/disodium hydrogen phosphate (0.2 M) buffers at the optimum pH for the enzyme. The incubation mixture consisted of […] of 1 mg/mL aqueous solution of extract and […] of the appropriate […] para-nitrophenyl substrate made up in buffer at the optimum pH for the enzyme. The reactions were stopped by addition of […] 0.4 M glycine (pH 10.4) during the exponential phase of the reaction, which had been determined at the beginning using uninhibited assays in which water replaced the inhibitor. Final absorbances were read at 405 nm using a Versamax microplate reader (Molecular Devices, Wokingham, UK). Assays were carried out in triplicate, and the values given are means of the three replicates per assay. All reactions were run in water.

[3] = test system: β-D-glucosidase (almond); assay: Glycosidase inhibition (Table 3 panel); type: biochemical; conditions: 1 mg/mL aqueous solution; run in water
Description: as §1

[4] = biological target: T1, β-D-galactosidase (bovine liver) (Bos taurus, UniProt F1MNT6); assay: Glycosidase inhibition (Table 2 panel); type: biochemical
T1 sequence (F1MNT6 1-469): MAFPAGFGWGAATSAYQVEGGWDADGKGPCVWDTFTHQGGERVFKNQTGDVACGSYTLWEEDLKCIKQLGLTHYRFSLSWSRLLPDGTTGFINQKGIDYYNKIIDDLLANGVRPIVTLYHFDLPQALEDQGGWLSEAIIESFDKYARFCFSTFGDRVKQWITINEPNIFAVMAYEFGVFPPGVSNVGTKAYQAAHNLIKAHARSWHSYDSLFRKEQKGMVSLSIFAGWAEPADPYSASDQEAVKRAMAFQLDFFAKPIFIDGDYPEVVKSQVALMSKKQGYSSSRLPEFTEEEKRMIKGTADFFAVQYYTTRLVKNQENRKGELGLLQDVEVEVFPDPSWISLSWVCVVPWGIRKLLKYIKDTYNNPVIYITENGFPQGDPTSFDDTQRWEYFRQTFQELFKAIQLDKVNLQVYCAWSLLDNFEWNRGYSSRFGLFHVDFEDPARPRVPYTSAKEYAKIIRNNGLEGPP
Method in brief: (§2)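 pNP-glycoside substrate […], optimum pH per enzyme, […]; quench Na2CO3 […]; A400 for liberated p-nitrophenol.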

[5] = test system: T2, α-L-fucosidase (bovine kidney); assay: Glycosidase inhibition (Table 2 panel); type: biochemical
T2 construct: purchased Sigma-Aldrich; host or cells: bovine kidney
Method in brief: as §2

[6] = test system: several glycosidases; assay: Glycosidase inhibition, whole Table 3 panel; type: biochemical; conditions: Table 3 assay conditions
Description: as §1

[7] = test system: T3, β-D-glucuronidase (E. coli); assay: Glycosidase inhibition (Table 2 panel); type: biochemical
T3 construct: purchased Sigma-Aldrich
Text: (§3) The enzymes α-D-glucosidase (yeast), β-D-glucosidases (almond, bovine liver), α-D-galactosidase (coffee beans), β-D-galactosidase (bovine liver), α-D-mannosidase (Jack bean), β-D-mannosidase (snail), α-L-rhamnosidase (P. decumbens), α-L-fucosidase (bovine kidney), trehalase (porcine kidney), β-D-glucuronidases (E. coli, bovine liver), amyloglucosidase (A. niger), para-nitrophenyl glycosides, and various disaccharides were purchased from Sigma-Aldrich Co (St. Louis, MO, USA).
(§4) Brush border membranes were prepared from the rat small intestine according to the method of Kessler et al., and were assayed at pH 6.8 for rat intestinal maltase using maltose. […] The reaction was stopped by heating at 100 °C for 3 min. After centrifugation (600 g; 10 min), the resulting reaction mixture was added to the Glucose CII-test Wako (Wako Pure Chemical Ind., Osaka, Japan). […] Other glycosidase activities were determined using an appropriate para-nitrophenyl glycoside as substrate at the optimum pH of each enzyme. The reaction mixture contained the substrate ([…]) and the appropriate amount of enzyme. The reaction was stopped by the addition of Na2CO3 (400 μM). The released para-nitrophenol was measured spectrometrically at 400 nm. All reactions were run in methanol.

[8] = test system: T4, amyloglucosidase (A. niger); assay: Glycosidase inhibition (Table 2 panel); type: biochemical
T4 construct: purchased Sigma-Aldrich
Text: as §3, §4

[9] = test system: MCF10A (non-tumour derived normal breast cell line); assay: Cancer screening, MTT growth inhibition; type: cell-based; conditions: 72 h; for inhibition at 25 µM / DOSE SCREEN percentage (%) cell growth inhibition MCF10A Breast (normal): 25 µM of drug; for inhibition at 25 µM: read-out: DOSE SCREEN percentage (%) cell growth inhibition MCF10A Breast (normal); for GI50: read-out: DOSE RESPONSE GI50 MCF10A Breast (normal)
[10] = biological target: T5, α-D-glucosidase (yeast) (Saccharomyces cerevisiae, UniProt P53341); assay: Glycosidase inhibition (Table 3 panel); type: biochemical; conditions: 1 mg/mL aqueous solution, run in water; for inhibition at 1000 µg/mL (stock): read-out: Percentage inhibition α-D-Glucosidase Yeast
T5 construct: purchased Sigma-Aldrich
T5 sequence (P53341 whole entry): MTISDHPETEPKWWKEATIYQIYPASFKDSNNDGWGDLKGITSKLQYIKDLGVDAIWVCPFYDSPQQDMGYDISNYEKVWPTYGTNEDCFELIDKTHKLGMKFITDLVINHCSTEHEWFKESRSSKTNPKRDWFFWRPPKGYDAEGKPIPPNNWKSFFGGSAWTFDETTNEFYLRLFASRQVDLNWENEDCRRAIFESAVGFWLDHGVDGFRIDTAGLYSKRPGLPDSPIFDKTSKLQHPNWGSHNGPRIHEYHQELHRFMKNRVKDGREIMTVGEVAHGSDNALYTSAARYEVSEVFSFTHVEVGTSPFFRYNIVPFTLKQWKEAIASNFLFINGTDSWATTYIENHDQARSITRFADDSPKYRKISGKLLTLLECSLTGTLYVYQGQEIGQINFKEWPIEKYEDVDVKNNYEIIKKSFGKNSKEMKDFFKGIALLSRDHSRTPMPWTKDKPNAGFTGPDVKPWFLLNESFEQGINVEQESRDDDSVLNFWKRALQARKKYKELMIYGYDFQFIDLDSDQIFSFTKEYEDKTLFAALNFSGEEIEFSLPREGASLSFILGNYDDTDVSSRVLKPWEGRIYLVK
Description: All enzymes and para-nitrophenyl substrates were purchased from Sigma. Enzymes were assayed at 27 °C in citric acid (0.1 M)/disodium hydrogen phosphate (0.2 M) buffers at the optimum pH for the enzyme. The incubation mixture consisted of […] of 1 mg/mL aqueous solution of extract and […] of the appropriate 5 μM para-nitrophenyl substrate made up in buffer at the optimum pH for the enzyme. […] Assays were carried out in triplicate, and the values given are means of the three replicates per assay. All reactions were run in water.

[11] = biological target: T5, α-D-glucosidase (yeast); assay: Glycosidase inhibition (Table 2 panel); type: biochemical; conditions: for inhibition at 100 µM / inhibition at 1000 µM: read-out: inhibition % α-D-Glucosidase Yeast
Text: as §3, §4

[12] = test system: β-D-glucosidase (human lysosome); assay: Glycosidase inhibition (Table 2 panel); type: biochemical; conditions: at 100 μM
[13] = test system: β-D-glucanase (T. Longibrachiatum); assay: Glycosidase inhibition (Table 2 panel); type: biochemical; conditions: at 100 μM
[14] = test system: β-D-galactosidase (E. coli); assay: Glycosidase inhibition (Table 2 panel); type: biochemical; conditions: at 100 μM
[15] = test system: N-acetyl-β-D-hexosaminidase (rat intestine); assay: Glycosidase inhibition (Table 3 panel); type: biochemical; conditions: 1 mg/mL aqueous solution; run in water
Description: as §1

[16] = test system: α-D-glucosidase (rat intestine); assay: Glycosidase inhibition (Table 3 panel); type: biochemical; conditions: 1 mg/mL aqueous solution; run in water
Description: as §1

[17] = test system: α-D-glucosidase (human lysosome); assay: Glycosidase inhibition (Table 2 panel); type: biochemical; conditions: at 100 μM

Compound	Sample Appearance [1]	Percentage inhibition β-D-Glucuronidase Bovine Liver [2] [%]	Percentage inhibition β-D-Glucosidase Almond [3] [%]	inhibition at 100 µM ([4]; at 100 μM) [%]	inhibition % α-L-Fucosidase Bovine Kidney ([5]; at 100 μM)	inhibition % β-D-Glucuronidase E. coli ([7]; at 100 μM)	inhibition % Amyloglucosidase A. niger ([8]; at 100 μM)	inhibition at 25 µM ([9]; Homo sapiens, MCF-10A) [%]	inhibition % β-D-Glucosidase Human Lysosome [12]	inhibition % β-D-Glucanase T. Longibrachiatum [13]	inhibition % β-D-Galactosidase E. coli [14]	Percentage inhibition N-Acetyl-β-D-Hexosaminidase Rat Intestine [15] [%]	Percentage inhibition α-D-Glucosidase Rat Intestine [16] [%]	inhibition at 1000 µg/mL (stock) [10] [%]	inhibition % α-D-Glucosidase Human Lysosome [17]	inhibition % α-L-Fucosidase Bovine Kidney ([5]; at 1000 μM)	inhibition at 100 µM [11] [%]	inhibition % β-D-Glucuronidase E. coli ([7]; at 1000 μM)	inhibition % Amyloglucosidase A. niger ([8]; at 1000 μM)	GI50 ([9]; Homo sapiens, MCF-10A) [µM]	further results
N[C@@H](Cc1ccc(B(O)O)cc1)C(=O)O [BPA, 4-borono-L-phenylalanine, reference compound]	Some in solution with undissolved sediment	−0.7	3.9	10.9	^cNI ^d(0%)	^cNI ^d(0.5%)	^cNI ^d(0%)	4	–	–	–	–	–	–	–	–	–	–	–	–	Inhibition over the glycosidases of Table 3 [6]: < 30%
N[C@@H](Cc1ccc(B(O)O)cc1)C(=O)O [^10B-BPA, reference compound]	Some in solution with undissolved sediment	−1	3	–	^cNI ^d(0%)	^cNI ^d(2.4%)	^cNI ^d(0%)	–	–	–	–	–	–	–	–	–	–	–	–	–	Percentage inhibition α-D-Glucosidase Yeast [10]: 3.4%; inhibition % β-D-Galactosidase Bovine Liver ([4]; at 100 μM): ^cNI ^d(0%); Inhibition over the glycosidases of Table 3 [6]: < 30%; inhibition % α-D-Glucosidase Yeast ([11]; at 100 μM): ^cNI ^d(0%); DOSE SCREEN percentage (%) cell growth inhibition MCF10A Breast (normal) [9]: * <0%
OC[C@H](O)[C@@H]1[C@H](O)[C@H](O)CN1Cc1cccc(B(O)O)c1 [meta 4, N-(3-Methylphenylboronic acid)-1,4-dideoxy-1,4-imino-L-gulitol]	In solution	−2.7	47.9	24.6	–	^cNI ^d(3.5%)	^cNI ^d(6.6%)	14 ± 13	^cNI ^d(13.6%)	^cNI ^d(1.2%)	^cNI ^d(4.9%)	−2.2	41.1	23.5	^cNI ^d(7.2%)	^aNI ^b(3.0%)	8.1	^aNI ^b(20.6%)	^aNI ^b(3.6%)	> 50	inhibition at 1000 µM [11]: 4.9%
CC1(C)O[C@H]2O[C@H]3[C@@H]([C@H]2O1)N(Cc1ccccc1B1OC(C)(C)C(C)(C)O1)C[C@H]3O [ortho 2, N-(2-Methylphenylboronic acid pinacol ester)-3,6-dideoxy-3,6-imino-1,2-O-isopropylidene-α-D-gulofuranose]	In solution	−1.8	73.3	–	–	^cNI ^d(4.1%)	^cNI ^d(0%)	9 ± 4	^cNI ^d(5.6%)	^cNI ^d(21%)	^cNI ^d(8.8%)	13.8	−6.7	-2	^cNI ^d(3.3%)	^aNI ^b(7.8%)	1	^aNI ^b(5.2%)	^aNI ^b(3.2%)	> 50	inhibition at 1000 µM ([4]; at 1000 μM): 21.8%; inhibition at 1000 µM [11]: 0%
OC[C@H](O)[C@@H]1[C@H](O)[C@H](O)CN1Cc1ccccc1B(O)O [ortho 4, N-(2-Methylphenylboronic acid)-1,4-dideoxy-1,4-imino-L-gulitol]	In solution	2.2	49.8	3.3	–	^cNI ^d(0%)	^cNI ^d(0%)	8 ± 4	^cNI ^d(0%)	^cNI ^d(0%)	^cNI ^d(14%)	−0.2	17.4	-6.7	^cNI ^d(2.2%)	^aNI ^b(1.3%)	0	^aNI ^b(31.8%)	^aNI ^b(0%)	> 50	IC50 ([11]; listed as of the 1000 μM series): 784 µM
N-(3-Hydroxyphenyl)-1,4-dideoxy-1,4-imino-L-gulitol [meta 7]	In solution	−3	2.9	–	–	^cNI ^d(0.5%)	^cNI ^d(5.1%)	–	^cNI ^d(9.9%)	^cNI ^d(0%)	^cNI ^d(0%)	−2.5	−10.7	–	^cNI ^d(0%)	^aNI ^b(2.1%)	–	^aNI ^b(7.5%)	^aNI ^b(2.1%)	–	Percentage inhibition α-D-Glucosidase Yeast [10]: 19.5%; inhibition % β-D-Galactosidase Bovine Liver ([4]; at 100 μM): ^cNI ^d(17.5%); inhibition % β-D-Galactosidase Bovine Liver ([4]; at 1000 μM): ^aNI ^b(8.1%); inhibition % α-D-Glucosidase Yeast ([11]; at 100 μM): ^cNI ^d(3.4%); inhibition % α-D-Glucosidase Yeast ([11]; at 1000 μM): ^aNI ^b(4.3%); DOSE SCREEN percentage (%) cell growth inhibition MCF10A Breast (normal) [9]: 31 ± 16%; GI50 [9]: 43 ± 17 µM

— paper PMC12655172, “Borylated 5-Membered Ring Iminosugars: Synthesis and Biological Evaluation for Glycosidase Inhibition and Anticancer Properties for Application in Boron Neutron Capture Therapy (BNCT)—Part 2” (Pharmaceuticals, 2025)
